# Experimental data reported in patent US12453349B2, “Compositions comprising pyridine carboxylate herbicides and 4-hydroxyphenyl-pyruvate dioxygenase (HPPD) inhibitor herbicides” (Corteva Agriscience LLC, priority 2018, dated 2025).
# Legend:
# Type in all cases: in vivo
# [1] = tested on: AMARE, Amaranthus retroflexus (pigweed); assay: Greenhouse postemergence herbicidal effect, visual injury 20-22 d after application
# Excerpt: (§1) Seeds of the desired test plant species were planted in a 90:10% v/v (volume/volume) mixture of PRO-MIX® BX (Premier Tech Horticulture, Quakertown, PA, USA) and PROFILE® GREENS GRADE™ (Profile Products LLC, Buffalo Grove, IL, USA) planting mixture, which typically has a pH of 5.2 to 6.2 and an organic matter content of at least 50 percent, in plastic pots with a surface area of 103.2 square centimeters (cm^2). In some aspects, to help ensure good germination and healthy plants, a fungicide treatment and/or other chemical or physical treatment was applied. The plants were grown for 7-36 days (d) in a greenhouse with an approximate 14-hour (h) photoperiod which was maintained at about 23° C. during the day and 22° C. during the night. Nutrients and water were added on a regular basis and supplemental lighting was provided with overhead metal halide 1000-Watt lamps as necessary. The plants were employed for testing when they reached the second or third true leaf stage.
# (§2) Emulsifiable concentrates of each of each pyridine carboxylate herbicide (Compound A or Compound B) were prepared at 100 grams acid equivalent per liter (g ae/L). The emulsifiable concentrates also included a safener, cloquintocet mexyl, at 120 grams active ingredient per liter (g ai/L). An aliquot of each emulsifiable concentrate was placed in a 25 mL glass vial and diluted with an aqueous mixture of 1.25% (v/v) ACTIROB® B esterified rapeseed oil (Bayer Crop Science, Research Triangle Park, NC, USA) or MSO® Concentrate with LECI-TECH® methylated soybean oil (Loveland Products, Loveland, CO, USA) to obtain concentrated stock solutions at the highest application rate for each herbicide, based upon a 12 milliliter (mL) application volume at a rate of 187 liters per hectare (L/ha). The concentrated stock solutions were further diluted with an aqueous mixture of 1.25% v/v ACTIROB® B or MSO® Concentrate with LECI-TECH® to obtain stock solutions at reduced application rates for each herbicide. Spray solutions of the herbicide combinations (Compound A or Compound B plus HPPD inhibitor herbicide) were prepared by adding weighed amounts or aliquots of the HPPD inhibitor herbicides to the stock solutions of Compound A or Compound B to form 12-mL spray solutions in two-way combinations.
# (§3) The spray solutions were applied to the plant material with an overhead Mandel track sprayer equipped with 8002E nozzles calibrated to deliver 187 L/ha over an application area of 0.503 square meters (m^2) at a spray height of 18 inches (43 centimeters (cm)) above the average plant canopy. Control plants were sprayed in the same manner with the solvent blank. All pyridine carboxylate herbicide (component a) application rates are given as “g ae/ha” and all HPPD inhibitor herbicide (component b) application rates are given as “g ai/ha.”
# (§4) The treated plants and control plants were placed in a greenhouse as described above and watered by sub-irrigation to prevent wash-off of the test compounds. After 20-22 d, the condition of the test plants as compared with that of the control plants was determined visually and scored on a scale of 0 to 100 percent where 0 corresponds to no injury and 100 corresponds to complete kill.
# [2] = tested on: ABUTH, Abutilon theophrasti (velvetleaf); assay: as above
# Excerpt: as §1, §2, §3, §4
# [3] = tested on: HELAN, Helianthus annuus (common sunflower); assay: as above; settings: Mesotrione 35 g ai/ha
# Excerpt: as §1, §2, §3, §4
# [4] = tested on: POLCO, Polygonum convolvulus (wild buckwheat); assay: as above
# Excerpt: as §1, §2, §3, §4
# [5] = tested on: EPHHL, Euphorbia heterophylla (poinsettia); assay: as above; settings: Mesotrione 35 g ai/ha
# Excerpt: as §1, §2, §3, §4
# [6] = tested on: VIOTR, Viola tricolor (wild pansy); assay: as above
# Excerpt: as §1, §2, §3, §4
# [7] = tested on: CIRAR, Cirsium arvense (Canadian thistle); assay: as above
# Excerpt: as §1, §2, §3, §4
# [8] = tested on: KCHSC, Kochia scoparia (kochia); assay: as above; settings: Bassia scoparia, post-emergence, read-out: % visual injury Obs
# Excerpt: as §1, §2, §3, §4
# [9] = tested on: MATCH, Matricaria chamomilla (wild chamomile); assay: as above
# Excerpt: as §1, §2, §3, §4
# [10] = tested on: BRSNW, Brassica napus (winter rape); assay: as above
# Excerpt: as §1, §2, §3, §4
# [11] = tested on: SASKR, Salsola kali (Russian thistle); assay: as above
# Excerpt: as §1, §2, §3, §4
# [12] = tested on: CHEAL, Chenopodium album L. (common lambsquarters); assay: as above
# Excerpt: as §1, §2, §3, §4
# [13] = tested on: SINAR, Sinapis arvensis (wild mustard); assay: as above
# Excerpt: as §1, §2, §3, §4
# [14] = tested on: BRSNN, Brassica napus (spring rape); assay: as above; settings: Sulcotrione 75 g ai/ha
# Excerpt: as §1, §2, §3, §4
# [15] = tested on: HORVS, Hordeum vulgare (spring barley); assay: Greenhouse postemergence phytotoxicity on crop, visual injury 20-22 d after application
# Excerpt: as §1, §2, §3, §4
# [16] = tested on: TRZAS, Triticum aestivum (spring wheat); assay: as above
# Excerpt: as §1, §2, §3, §4
# [17] = Mesotrione 35 g ai/ha (Table 8)
smiles,measurement,setting,value
"CS(=O)(=O)c1ccc(C(=O)C2C(=O)CCCC2=O)c([N+](=O)[O-])c1 [Mesotrione, 2-[4-(methylsulfonyl)-2-nitrobenzoyl]-1,3-cyclohexanedione]",% visual injury Obs,[1]; Mesotrione 35 g ai/ha,90%
same,% visual injury Obs,[2]; Mesotrione 35 g ai/ha,99%
same,% visual injury Obs,[2]; [17],85%
same,% visual injury Obs,[3],90%
same,% visual injury Obs,[4]; Mesotrione 35 g ai/ha,75%
same,% visual injury Obs,[5],100%
same,% visual injury Obs,[6]; Mesotrione 35 g ai/ha,75%
same,% visual injury Obs,[6]; [17],78%
same,% visual injury Obs,[7]; Mesotrione 35 g ai/ha,84%
same,% visual injury Obs,[7]; [17],73%
same,pest or weed control at 35 g/ha,"[8]; KCHSC, Mesotrione 35 g ai/ha",35%
"Cc1ccc(S(=O)(=O)Oc2c(C(=O)c3ccc(Cl)cc3Cl)c(C)nn2C)cc1 [Pyrazolynate, (2,4-dichlorophenyl) [1,3-dimethyl-5-[[(4-methylphenyl)sulfonyl]oxy]-1H-pyrazol-4-yl]methanone]",% visual injury Obs,[1]; Pyrazolynate 225 g ai/ha,10%
same,% visual injury Obs,[9]; Pyrazolynate 225 g ai/ha,0%
same,% visual injury Obs,[10]; Pyrazolynate 225 g ai/ha,0%
same,% visual injury Obs,[4]; Pyrazolynate 225 g ai/ha,5%
same,% visual injury Obs,[11]; Pyrazolynate 225 g ai/ha,0%
same,% visual injury Obs,[12]; Pyrazolynate 225 g ai/ha,5%
same,% visual injury Obs,[13]; Pyrazolynate 225 g ai/ha,5%
same,% visual injury Obs,[7]; Pyrazolynate 225 g ai/ha,0%
same,pest or weed control at 225 g/ha,"[8]; KCHSC, Pyrazolynate 225 g ai/ha",0%
"CS(=O)(=O)c1ccc(C(=O)C2C(=O)CCCC2=O)c(Cl)c1 [Sulcotrione, 2-[2-chloro-4-(methylsulfonyl)benzoyl]-1,3-cyclohexanedione]",% visual injury Obs,[14],75%
same,pest or weed control at 75 g/ha,[8],30%
same,% visual injury Obs,[15]; Sulcotrione 75 g ai/ha,8%
same,% visual injury Obs,[16]; Sulcotrione 75 g ai/ha,0%
"CS(=O)(=O)c1ccc(C(=O)C2C(=O)CCCC2=O)c(Cl)c1COCC(F)(F)F [Tembotrione, 2-[2-chloro-4-(methylsulfonyl)-3-[(2,2,2-trifluoroethoxy)methyl]benzoyl]-1,3-cyclohexanedione]",% visual injury Obs,[1]; Tembotrione 25 g ai/ha,100%
same,% visual injury Obs,[9]; Tembotrione 25 g ai/ha,73%
same,% visual injury Obs,[10]; Tembotrione 25 g ai/ha,88%
same,% visual injury Obs,[4]; Tembotrione 25 g ai/ha,25%
same,% visual injury Obs,[11]; Tembotrione 25 g ai/ha,78%
same,% visual injury Obs,[12]; Tembotrione 25 g ai/ha,100%
same,% visual injury Obs,[13]; Tembotrione 25 g ai/ha,95%
same,% visual injury Obs,[7]; Tembotrione 25 g ai/ha,75%
same,pest or weed control at 25 g/ha,"[8]; KCHSC, Tembotrione 25 g ai/ha",48%
"Cc1c(C(=O)c2cnn(C)c2O)ccc(S(C)(=O)=O)c1C1=NOCC1 [Topramezone, [3-(4,5-dihydro-3-isoxazolyl)-2-methyl-4-(methylsulfonyl)phenyl] (5-hydroxy-1-methyl-1H-pyrazol-4-yl) methanone]",% visual injury Obs,[1]; Topramezone 40 g ai/ha,100%
same,% visual injury Obs,[9]; Topramezone 40 g ai/ha,30%
same,% visual injury Obs,[10]; Topramezone 40 g ai/ha,98%
same,% visual injury Obs,[4]; Topramezone 40 g ai/ha,43%
same,% visual injury Obs,[12]; Topramezone 40 g ai/ha,100%
same,% visual injury Obs,[13]; Topramezone 40 g ai/ha,100%
same,% visual injury Obs,[7]; Topramezone 40 g ai/ha,20%
same,pest or weed control at 40 g/ha,[8],35%
same,% visual injury Obs,[15]; Topramezone 40 g ai/ha,38%
same,% visual injury Obs,[16]; Topramezone 40 g ai/ha,33%
